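Five compound concentrations were applied to cells in 96-well plates for 48 hours; endpoints were derived by simple linear interpolation of the resulting dose-response curve. The concentration for full growth arrest is given as TGI.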
Tests used:
Assay in all cases: growth of human tumour cells (NCI), 48 h
HT29 colon = test system: HT29 colon
UACC-62 melanoma = test system: UACC-62 melanoma
SN12C renal = test system: SN12C renal
PC-3 prostate = test system: PC-3 prostate
SW-620 colon = test system: SW-620 colon
IGROV1 ovarian = test system: IGROV1 ovarian
OVCAR-8 ovarian = test system: OVCAR-8 ovarian
786-0 renal = test system: 786-0 renal
MALME-3M melanoma = test system: MALME-3M melanoma
MDA-MB-231 breast = test system: MDA-MB-231 breast
CCRF-CEM leukemia = test system: CCRF-CEM leukemia
U251 CNS = test system: U251 CNS
KM12 colon = test system: KM12 colon
HCC-2998 colon = test system: HCC-2998 colon
SK-MEL-28 melanoma = test system: SK-MEL-28 melanoma
NCI/ADR-RES ovarian = test system: NCI/ADR-RES ovarian
A498 renal = test system: A498 renal
HS 578T breast = test system: HS 578T breast
SF-268 CNS = test system: SF-268 CNS
SK-MEL-2 melanoma = test system: SK-MEL-2 melanoma
OVCAR-5 ovarian = test system: OVCAR-5 ovarian
HCT-15 colon = test system: HCT-15 colon
SF-539 CNS = test system: SF-539 CNS
HOP-92 NSCLC = test system: HOP-92 NSCLC
NCI-H522 lung = test system: NCI-H522 lung
MDA-N = test system: MDA-N
UO-31 renal = test system: UO-31 renal
LOX IMVI melanoma = test system: LOX IMVI melanoma
SNB-75 CNS = test system: SNB-75 CNS
MOLT-4 leukemia = test system: MOLT-4 leukemia
NCI-H226 lung = test system: NCI-H226 lung
HOP-62 NSCLC = test system: HOP-62 NSCLC
MDA-MB-435 = test system: MDA-MB-435
MCF7 breast = test system: MCF7 breast
SNB-19 CNS = test system: SNB-19 CNS
A549 NSCLC = test system: A549 NSCLC
SK-MEL-5 melanoma = test system: SK-MEL-5 melanoma
SF-295 CNS = test system: SF-295 CNS
M14 melanoma = test system: M14 melanoma
EKVX NSCLC = test system: EKVX NSCLC
T-47D breast = test system: T-47D breast
TK-10 renal = test system: TK-10 renal
SK-OV-3 ovarian = test system: SK-OV-3 ovarian
HL-60(TB) leukemia = test system: HL-60(TB) leukemia
RXF 393 renal = test system: RXF 393 renal
RPMI-8226 leukemia = test system: RPMI-8226 leukemia
BT-549 breast = test system: BT-549 breast
OVCAR-3 ovarian = test system: OVCAR-3 ovarian
OVCAR-4 ovarian = test system: OVCAR-4 ovarian
SR leukemia = test system: SR leukemia
ACHN renal = test system: ACHN renal
NCI-H23 lung = test system: NCI-H23 lung
COLO 205 colon = test system: COLO 205 colon
CAKI-1 renal = test system: CAKI-1 renal
DU-145 prostate = test system: DU-145 prostate
UACC-257 melanoma = test system: UACC-257 melanoma
HCT-116 colon = test system: HCT-116 colon
NCI-H460 lung = test system: NCI-H460 lung
K-562 leukemia = test system: K-562 leukemia
SNB-78 CNS = test system: SNB-78 CNS
M19-MEL melanoma = test system: M19-MEL melanoma
LXFL 529 NSCLC = test system: LXFL 529 NSCLC
DLD-1 colon = test system: DLD-1 colon
KM20L2 colon = test system: KM20L2 colon
DMS 114 small cell lung = test system: DMS 114 small cell lung

## COc1ccc2cc(CNCCOCCOCCNCc3ccc4cc(OC)ccc4c3)ccc2c1
HT29 colon
  TGI: 0.394 µM
UACC-62 melanoma
  TGI: 3.38 µM
SN12C renal
  TGI: 3.85 µM
PC-3 prostate
  TGI: 3.16 µM
SW-620 colon
  TGI: 3.69 µM
IGROV1 ovarian
  TGI: 3.45 µM
OVCAR-8 ovarian
  TGI: 2.97 µM
786-0 renal
  TGI: 2.19 µM
MALME-3M melanoma
  TGI: 2.83 µM
MDA-MB-231 breast
  TGI: 2.91 µM
CCRF-CEM leukemia
  TGI: 1.24 µM
U251 CNS
  TGI: 8.46 µM
KM12 colon
  TGI: 2.27 µM
HCC-2998 colon
  TGI: 0.319 µM
SK-MEL-28 melanoma
  TGI: 2.69 µM
NCI/ADR-RES ovarian
  TGI: 3.02 µM
A498 renal
  TGI: 3.78 µM
HS 578T breast
  TGI: 3.46 µM
SF-268 CNS
  TGI: 2.99 µM
SK-MEL-2 melanoma
  TGI: 3.18 µM
OVCAR-5 ovarian
  TGI: 3.89 µM
HCT-15 colon
  TGI: 1.63 µM
SF-539 CNS
  TGI: 3.03 µM
HOP-92 NSCLC
  TGI: 3.05 µM
NCI-H522 lung
  TGI: 3.49 µM
MDA-N
  TGI: 2.35 µM
UO-31 renal
  TGI: 2.61 µM
LOX IMVI melanoma
  TGI: 1.22 µM
SNB-75 CNS
  TGI: 3.03 µM
MOLT-4 leukemia
  TGI: 2.44 µM
NCI-H226 lung
  TGI: 3.09 µM
HOP-62 NSCLC
  TGI: 3.87 µM
MDA-MB-435
  TGI: 1.21 µM
MCF7 breast
  TGI: 2.5 µM
SNB-19 CNS
  TGI: 3.09 µM
A549 NSCLC
  TGI: 3.12 µM
SK-MEL-5 melanoma
  TGI: 1.81 µM
SF-295 CNS
  TGI: 2.59 µM
M14 melanoma
  TGI: 0.687 µM
EKVX NSCLC
  TGI: 3.21 µM
T-47D breast
  TGI: 3.22 µM
TK-10 renal
  TGI: 2.98 µM
SK-OV-3 ovarian
  TGI: 3.28 µM
HL-60(TB) leukemia
  TGI: 0.657 µM
RXF 393 renal
  TGI: 3.18 µM
RPMI-8226 leukemia
  TGI: 2.03 µM
BT-549 breast
  TGI: 3.59 µM
OVCAR-3 ovarian
  TGI: 3.54 µM
OVCAR-4 ovarian
  TGI: 4.07 µM
SR leukemia
  TGI: 2.29 µM
ACHN renal
  TGI: 3.01 µM
NCI-H23 lung
  TGI: 3.02 µM
COLO 205 colon
  TGI: 0.346 µM
CAKI-1 renal
  TGI: 3.22 µM
DU-145 prostate
  TGI: 3.15 µM
UACC-257 melanoma
  TGI: 3.18 µM
HCT-116 colon
  TGI: 7.86 µM
NCI-H460 lung
  TGI: 1.51 µM
K-562 leukemia
  TGI: 1.92 µM

## Cc1nc(-n2nc(-c3ccccc3)cc2-c2ccccc2)sc1C(/C=C\c1ccc([N+](=O)[O-])cc1)=N/NC(=S)NN
HT29 colon
  TGI: > 72 µM
UACC-62 melanoma
  TGI: > 57.7 µM
SN12C renal
  TGI: > 31.6 µM
PC-3 prostate
  TGI: > 100 µM
SNB-78 CNS
  TGI: > 100 µM
SW-620 colon
  TGI: > 100 µM
IGROV1 ovarian
  TGI: > 72 µM
OVCAR-8 ovarian
  TGI: 28.6 µM
M19-MEL melanoma
  TGI: > 100 µM
LXFL 529 NSCLC
  TGI: > 100 µM
786-0 renal
  TGI: 46 µM
MALME-3M melanoma
  TGI: > 100 µM
CCRF-CEM leukemia
  TGI: > 100 µM
U251 CNS
  TGI: > 100 µM
KM12 colon
  TGI: > 100 µM
HCC-2998 colon
  TGI: 40.3 µM
SK-MEL-28 melanoma
  TGI: > 100 µM
NCI/ADR-RES ovarian
  TGI: 85.3 µM
A498 renal
  TGI: > 100 µM
HS 578T breast
  TGI: > 100 µM
SF-268 CNS
  TGI: > 61.3 µM
SK-MEL-2 melanoma
  TGI: 98.5 µM
OVCAR-5 ovarian
  TGI: > 65.4 µM
HCT-15 colon
  TGI: 56.6 µM
SF-539 CNS
  TGI: > 61.3 µM
HOP-92 NSCLC
  TGI: > 100 µM
NCI-H522 lung
  TGI: 42.3 µM
MDA-N
  TGI: 50.7 µM
UO-31 renal
  TGI: > 58.3 µM
LOX IMVI melanoma
  TGI: > 66.5 µM
DLD-1 colon
  TGI: 48.6 µM
SNB-75 CNS
  TGI: > 100 µM
MOLT-4 leukemia
  TGI: > 100 µM
NCI-H226 lung
  TGI: > 86.6 µM
HOP-62 NSCLC
  TGI: 52.2 µM
MDA-MB-435
  TGI: > 100 µM
MCF7 breast
  TGI: 35.1 µM
SNB-19 CNS
  TGI: > 80 µM
A549 NSCLC
  TGI: > 100 µM
SK-MEL-5 melanoma
  TGI: > 53.4 µM
SF-295 CNS
  TGI: > 100 µM
M14 melanoma
  TGI: > 80.1 µM
EKVX NSCLC
  TGI: > 100 µM
T-47D breast
  TGI: 87.7 µM
TK-10 renal
  TGI: > 59.2 µM
SK-OV-3 ovarian
  TGI: > 100 µM
HL-60(TB) leukemia
  TGI: > 87.2 µM
RXF 393 renal
  TGI: > 59 µM
RPMI-8226 leukemia
  TGI: > 100 µM
KM20L2 colon
  TGI: > 100 µM
BT-549 breast
  TGI: 49.2 µM
OVCAR-3 ovarian
  TGI: > 70.7 µM
OVCAR-4 ovarian
  TGI: > 100 µM
ACHN renal
  TGI: > 82 µM
NCI-H23 lung
  TGI: 60.6 µM
COLO 205 colon
  TGI: > 31.6 µM
CAKI-1 renal
  TGI: > 56.5 µM
DU-145 prostate
  TGI: 98.9 µM
DMS 114 small cell lung
  TGI: > 100 µM
UACC-257 melanoma
  TGI: > 67.7 µM
HCT-116 colon
  TGI: 41 µM
NCI-H460 lung
  TGI: > 66.7 µM
K-562 leukemia
  TGI: > 100 µM

From PubChem BioAssay (NCI)
